Earlier results on one substance are cited in US11969487B2, “Non-cellular root canal filling material and non-cellular dental tissue regeneration promoting kit” (Kowa Company, Ltd., priority 2017, dated 2024).

Where two headings read alike, the source gives them in different places.

The test system of series [1] is dental pulp regeneration in dogs.
For series [2], the system named is dental pulp stem cells on dentin surfaces. Conditions: dental pulp stem cells seeded on treated dentin surfaces in vitro.

Regarding trypsin, the dental pulp regeneration entry in series [1] (no transplantation of dental pulp stem cells) is “hardly observed”. In addition, the dental pulp regeneration result in series [1] (root canals pretreated before dental pulp stem cell transplantation, middle-aged and elderly individuals) was “promoted”. In addition, in series [1] (young dogs), the “effect of pretreatment on the dental pulp regeneration” value was “no effect”. Further, in series [2], the “adhesion of the cells” value was “increased” and the differentiation into odontoblasts entry is “promotion of differentiation into odontoblasts was observed”.
